Molecules are shown by their SMILES. Like-named read-outs stand apart in the source and are kept apart here.

The target of one assay is T1, human PPARγ (Homo sapiens, UniProt P37231).
T1 construct: human PPAR 167-468 (PPARα), 138-440 (NUC-1) and 174-475 (PPARY) amino acid regions; expressed in transfected cells; host or cells: CV-1 (ATCC CCL-70D)
T1 sequence (P37231 204-505): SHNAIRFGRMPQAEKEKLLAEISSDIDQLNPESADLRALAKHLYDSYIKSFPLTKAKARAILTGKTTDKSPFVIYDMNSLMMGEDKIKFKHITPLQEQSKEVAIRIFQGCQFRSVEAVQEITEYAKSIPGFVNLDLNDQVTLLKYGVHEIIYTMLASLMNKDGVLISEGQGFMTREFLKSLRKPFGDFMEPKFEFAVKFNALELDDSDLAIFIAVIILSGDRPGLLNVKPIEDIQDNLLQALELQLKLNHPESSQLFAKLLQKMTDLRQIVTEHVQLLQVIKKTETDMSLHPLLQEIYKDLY
As to the kind of experiment: Measurement of transcriptional activity (GAL4-PPAR LBD chimera, PLAP reporter, CV-1 cells). The following applies: PLAP activity 24 hours after addition of the compound, read-out: Transcriptional activities EC50 PRAR γ. Format: cell-based. As to the method: (§1) Measurement of Transcriptional Activity
(§2) As the reporter gene, PLAP (Placental Alkaline Phosphatase) was used, and this was ligated downstream of a TK promoter containing a 5-copy GAL4 DNA binding element to construct a vector. As host cells, CV-1 (ATCC CCL-70D) was used. That is, CV-1 cells were spread at a density of 5×10^5 cells on a 35-mm dish and cultured in 10% FCS/DMEM for 24 hours, and using FuGENE 6 transfection reagent, the cells were co-transfected with the GAL4-PPAR LBD expression vector and GAL4 DBD-TK-PLAP expression vector. 24 hours after this transfection, the cells were spread again on a 96-well plate at a density of 1×10^4/well and further cultured for 24 hours. After 24 hours, the medium was exchanged with DMEM containing 10% FCS, which was previously treated at 65° C. for inactivating intrinsic alkaline phosphatase, and a test compound was added at an arbitrary concentration. […] The […] was determined after adding 50 μl assay buffer and 50 μl chemoluminescence substrate to 10 μl culture supernatant and incubating the mixture at room temperature for 1 hour.

The target of another assay is T2, human PPARα (Homo sapiens, UniProt Q07869).
T2 construct: human PPAR 167-468 (PPARα), 138-440 (NUC-1) and 174-475 (PPARY) amino acid regions; expressed in transfected cells; host or cells: CV-1 (ATCC CCL-70D)
T2 sequence (Q07869 167-468): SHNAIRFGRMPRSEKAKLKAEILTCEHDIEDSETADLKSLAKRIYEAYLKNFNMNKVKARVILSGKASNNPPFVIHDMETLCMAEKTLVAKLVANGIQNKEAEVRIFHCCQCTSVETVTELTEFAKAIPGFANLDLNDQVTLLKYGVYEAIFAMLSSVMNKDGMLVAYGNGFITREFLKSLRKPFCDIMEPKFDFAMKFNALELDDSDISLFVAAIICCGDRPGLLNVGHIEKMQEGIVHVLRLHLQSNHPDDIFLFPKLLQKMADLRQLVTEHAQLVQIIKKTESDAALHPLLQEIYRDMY
The assay is described as above. Format: cell-based. As to the method: as §1, §2

The target of a further assay is T3, human PPARβ (NUC-1) (Homo sapiens, UniProt Q03181).
T3 construct: human PPAR 167-468 (PPARα), 138-440 (NUC-1) and 174-475 (PPARY) amino acid regions; expressed in transfected cells; host or cells: CV-1 (ATCC CCL-70D)
T3 sequence (Q03181 138-440): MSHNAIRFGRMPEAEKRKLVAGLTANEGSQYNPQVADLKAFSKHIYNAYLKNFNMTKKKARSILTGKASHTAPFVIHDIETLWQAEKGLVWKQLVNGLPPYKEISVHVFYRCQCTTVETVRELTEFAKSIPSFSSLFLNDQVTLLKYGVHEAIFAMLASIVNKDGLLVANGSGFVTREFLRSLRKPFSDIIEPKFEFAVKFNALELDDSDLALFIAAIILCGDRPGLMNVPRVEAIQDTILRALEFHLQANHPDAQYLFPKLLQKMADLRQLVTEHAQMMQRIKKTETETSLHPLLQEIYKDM
The assay is described as above. Format: cell-based. The procedure: as §1, §2

In the next assay the test system is male db/db mice. As to the kind of experiment: Measurement of blood sugar reduction, blood triglyceride reduction and blood free fatty acid reduction in db/db mice. Particulars: in vivo db/db mice, day 9 after administration, oral once a day. As to the method: Measurement of Blood Sugar Reduction, Blood Triglyceride Reduction and Blood Free Fatty Acid Reduction
Blood, was collected through a tail vein after the mice were fasted for 1 hour, before administration, and on Day 4 and Day 9 after administration, respectively. On Day 10, an oral glucose loading test was conducted; in this test, the mice were fasted overnight from the previous day, and in the next morning, 2 g/kg glucose was given to the mice. Plasma glucose, triglycerides (TG), free fatty acid (NEFA) were measured by using commercial kits, that is, Glucose C-II Test Wako (trade name) (Wako Pure Chemical Industries, Ltd., Tokyo), Deteminer L TG II (trade name) (Kyowa Medex, Tokyo) and NEFA C-Test Wako (Wako Pure Chemical Industries, Ltd., Tokyo), respectively.

The mark [1] stands for this setting: CV-1 cells, GAL4-PPAR LBD chimera, PLAP activity 24 hours after addition of the compound, read-out: Transcriptional activities EC50 PRAR α.
Where [2] appears, read: CV-1 cells, GAL4-PPAR LBD chimera, PLAP activity 24 hours after addition of the compound, read-out: Transcriptional activities EC50 PRAR β.

One may read the EC50 as the concentration giving half of the maximal effect. Consider `CCC(Cc1ccc(OC)c(NC(=O)Cc2ccc(C(F)(F)F)c(F)c2)c1)C(=O)O` (centres unmarked) [Example 18d), 2-(4-Methoxy-3-{[2-(3-fluoro-4-trifluoromethylphenyl)acetyl]amino}benzyl)butanoic acid], for which the figures for the EC50 on human PPARγ, at human PPARα (setting [1]) and at human PPARβ (NUC-1) (setting [2]) were > 10000 nM, 162 nM and 8050 nM, respectively.

In the case of `COc1ccc(C[C@H](OC(C)C)C(=O)O)cc1CNC(=O)c1ccc(C(F)(F)F)cc1F` [Example 36g), (2S)-3-[3-([2-fluoro-4-(trifluoromethyl)benzoyl]aminomethyl)-4-methoxyphenyl]-2-isopropoxypropanoic acid], the EC50 on human PPARγ worked out at 47 nM. Moreover, on human PPARα (setting [1]), the EC50 is 12 nM. Besides, on human PPARβ (NUC-1) (setting [2]), the concentration for a half-maximal effect (EC50) is 37 nM. Further, in the assay with male db/db mice (1 mg/kg/day (*)), the “Blood free fatty acid reduction (%)” value came to 54.0%, the “Blood sugar reduction (%)” value worked out at 51.5% and the “Blood triglycerides reduction (%)” value came out at 55.2%.

On to `CCC(Cc1ccc(OC)c(C(=O)NCc2ccc(C(F)(F)F)cc2)c1)C(=O)O` (centres unmarked) [Example 5d), 2-[4-Methoxy-3-({[4-(trifluoromethyl)benzyl]amino}carbonyl)benzyl)butanoic acid], for which a half-maximal effect at human PPARα (EC50) was put at 394 nM. The same molecule came in with an EC50 on human PPARβ (NUC-1) of 789 nM. In the assay on male db/db mice (30 mg/kg/day), the “Blood free fatty acid reduction (%)” value came to 65.5%, the “Blood sugar reduction (%)” value worked out at 53.6% and the “Blood triglycerides reduction (%)” value is reported as 58.8%.

Consider `COc1ccc(CC(OC(C)(C)C)C(=O)O)cc1C(=O)NCc1ccc(C(F)(F)F)cc1` (centres unmarked) [Example 3d), 2-tert-Butoxy-3-(4-methoxy-3-({[4-(trifluoromethyl)benzyl]amino}carbonyl)phenyl)propanoic acid], for which the EC50 at human PPARγ turned out to be 217 nM. Also, the EC50 on human PPARα (setting [1]) was found to be 87 nM. Also, the EC50 on human PPARβ (NUC-1) (setting [2]) came out at 5070 nM. In the assay with male db/db mice (30 mg/kg/day), the “Blood free fatty acid reduction (%)” value is reported as 47%, the “Blood sugar reduction (%)” value was 27.5% and the “Blood triglycerides reduction (%)” value stood at 63.8%.

Take `COc1ccc(CC(OC(C)C)C(=O)O)cc1C(=O)NCc1ccc(C(F)(F)F)cc1` (centres unmarked) [Example 2d), 2-Isopropoxy-3-(4-methoxy-3-({[4-(trifluoromethyl)benzyl]amino}carbonyl)phenyl)propanoic acid]: the EC50 on human PPARγ was 382 nM. Further, at human PPARα (setting [1]), the EC50 stood at 80 nM. Also, at human PPARβ (NUC-1) (setting [2]), the EC50 worked out at 2510 nM. In the assay on male db/db mice (30 mg/kg/day), the “Blood free fatty acid reduction (%)” value is reported as 46.7%, the “Blood sugar reduction (%)” value worked out at 44.6% and the “Blood triglycerides reduction (%)” value stood at 71.6%.

In the case of `CCCOC(Cc1ccc(OC)c(C(=O)NCc2ccc(C(F)(F)F)cc2)c1)C(=O)O` (centres unmarked) [Example 9d), 3-[4-methoxy-3-({[4-(trifluoromethyl)benzyl]amino}carbonyl)phenyl]-2-propoxypropanoic acid], the EC50 at human PPARγ stood at 746 nM. For the same molecule, the EC50 at human PPARα (setting [1]) came to 701 nM. Besides, the EC50 at human PPARβ (NUC-1) (setting [2]) was > 30000 nM. In addition, in the assay on male db/db mice (30 mg/kg/day), the “Blood free fatty acid reduction (%)” value worked out at 62.9%, the “Blood sugar reduction (%)” value is 46.1% and the “Blood triglycerides reduction (%)” value is reported as 80.4%.

On to `COc1ccc(C[C@H](OC(C)C)C(=O)O)cc1CNC(=O)c1ccc(Cl)cc1Cl` [Example 37e), (2S)-3-[3-([2,4-dichlorobenzoyl]aminomethyl)-4-methoxyphenyl]-2-isopropoxypropanoic acid], for which the values for the EC50 at human PPARγ, on human PPARα (setting [1]) and at human PPARβ (NUC-1) (setting [2]) were 16 nM, 28 nM and 432 nM, respectively. In addition, the “Blood free fatty acid reduction (%)” value with male db/db mice (1 mg/kg/day (*)) came out at 70.2%. Further, in the assay on male db/db mice (1 mg/kg/day (*)), the “Blood sugar reduction (%)” value is listed as 48.1%. For the same molecule, the “Blood triglycerides reduction (%)” value with male db/db mice (1 mg/kg/day (*)) is reported as 68.3%.

(Values after patent US6884821B1, “Carboxylic acid derivatives and drugs containing the same” (Eisai Co., Ltd., priority 1999, dated 2005).)
